# Patent publication US5952390A, “10-substituted 1,8-dihydroxy-9(10H) anthracenone pharmaceuticals” (Teva Pharmaceutical Industries Ltd., priority 1998, dated 1999)
# Like-named read-outs stand apart in the source and are kept apart here.
# Experiments:
# [1] = Degradation of 2-deoxy-D-ribose (hydroxyl radical formation); conditions: Table I (Addendum); controls: <0.1; 75 μM compound per method
# Description: This assay followed generally the procedures of Gutteridge, J. M. C., "Reactivity of Hydroxyl and Hydroxyl-Like Radicals Discriminated by Release of Thiobarbituric Acid-Reactive Material from Deoxy Sugars, Nucleosides and Benzoate", Biochem. J., 224, 761-767 (1984) and of Laughton, M. J. et al., "Antioxidant and Prooxidant Actions of the Plant Phenolics Quercetin, Gossypol and Myricetin", Biochem. Pharmacol., 38, 2859-2865 (1989). The following reagents were added to glass tubes in the order and at the final concentrations stated. 0.3 ml KH2 PO4 -KOH buffer, pH 7.4 (30 mM), 0.2 ml H2 O bidist., 0.2 ml 2-deoxy-D-ribose (2 mM), 0.2 ml FeCl3 .cndot.6 H2 O (0.1 mM), 0.1 ml anthracenone derivative (75 μM). Stock solutions of the compounds were made up fresh before use. Appropriate blanks and controls with the vehicle (acetonitrile) were conducted. The final reaction volumes were standardized to 1.0 ml. The reaction mixtures were incubated for 2 h at 37° C. in a shaking water bath. 1.0 ml of 2.8% (w/v) trichloroacetic acid and 1.0 ml of 1% (w/v in 0.05 N NaOH) 2-thiobarbituric acid (TBA) were added, and the samples were heated at 100° C. for 15 min and then cooled in an ice bath (5 min). Then 2.0 ml of the reaction mixtures were treated with 0.05 ml of 36% (w/v) HCl and 2.0 ml of 1-butanol and the mixtures were vigorously shaken in a vortex mixer (Heidolph) for 15 s. The organic layer was separated by centrifugation at 3000 rpm (15 min) and the absorbance at 532 nm was measured against butanol. […]
# The biological assay methods were as follows: LDH release as described in Muller K, Huang H-S, Wiegrebe W, J. Med. Chem. 39, 3132-3138 (1996); bovine PMNL 5-LO assay as described in Muller K, Gurster D, Piwek S, Wiegrebe W, J. Med. Chem. 36, 4099-4107 (1993); and degradation of 2-deoxy-D-ribose as described in Muller K, Gurster D, Biochem. Pharmacol. 46, 1695-1704 (1993). […] Extracellular LDH activity was measured using the UV method with pyruvate and NADH and is expressly in mU/ml. […]
# [2] = Reducing activity toward DPPH; conditions: Table I (Addendum); equimolar amount of test compound
# Description: This assay followed generally the procedures of Blois, M. S., "Antioxidant Determinations by the Use of a Stable Free Radical", Nature, 181, 1199-1200 (1958) and Kato, K. et al., "Studies on Scavengers of Active Oxygen Species. 1. Synthesis and Biological Activity of 2-O-Alkylascorbic Acids", J. Med. Chem., 31, 793-798 (1988). In time studies, 1 ml of test compound solution (10^-4 M) was added to 1 ml of DPPH solution (10^-4 M), each in acetone/PBS (1+1 V/V), and the reduction of DPPH was followed spectrophotometrically at 516 nm. Plots of the reciprocal of DPPH concentrations against time gave straight lines, and the second-orderrate constants were obtained from the slopes and are expressed as mean values (n=3-6). In the cases where DPPH was very fast approximate values are given and expressed as kDPPH >100 or kDPPH >>100M^-1s^-1.
# Because a radical scavenging antioxidant reacts rapidly with the stable free radical 2,2-diphenyl-1-picrylhydrazyl (DPPH), Blois, M. S., "Antioxidant Determination by the Use of a Stable Free Radical", Nature, 181, 1199-1200 (1958); Kato, K. et al., "Studies on Scavengers of Active Oxygen Species. I. Synthesis and Biological Activity of 2-O-Alkylascorbic Acids", J. Med. Chem., 31, 793-798 (1988), the reactivities of the new compounds with DPPH were determined by decrease in absorbance at 516 nm.
# [3] = target: T1, 5-LO in bovine PMNL (Bos taurus, UniProt F1MQ78); assay: Bovine PMNL 5-lipoxygenase assay (inhibition of 5-HETE and LTB4 biosynthesis); format: cell-based; conditions: at 30 μM
# T1 construct: endogenous in cells; host or cells: polymorphonuclear leukocytes isolated from bovine blood
# T1 sequence (F1MQ78 1-674): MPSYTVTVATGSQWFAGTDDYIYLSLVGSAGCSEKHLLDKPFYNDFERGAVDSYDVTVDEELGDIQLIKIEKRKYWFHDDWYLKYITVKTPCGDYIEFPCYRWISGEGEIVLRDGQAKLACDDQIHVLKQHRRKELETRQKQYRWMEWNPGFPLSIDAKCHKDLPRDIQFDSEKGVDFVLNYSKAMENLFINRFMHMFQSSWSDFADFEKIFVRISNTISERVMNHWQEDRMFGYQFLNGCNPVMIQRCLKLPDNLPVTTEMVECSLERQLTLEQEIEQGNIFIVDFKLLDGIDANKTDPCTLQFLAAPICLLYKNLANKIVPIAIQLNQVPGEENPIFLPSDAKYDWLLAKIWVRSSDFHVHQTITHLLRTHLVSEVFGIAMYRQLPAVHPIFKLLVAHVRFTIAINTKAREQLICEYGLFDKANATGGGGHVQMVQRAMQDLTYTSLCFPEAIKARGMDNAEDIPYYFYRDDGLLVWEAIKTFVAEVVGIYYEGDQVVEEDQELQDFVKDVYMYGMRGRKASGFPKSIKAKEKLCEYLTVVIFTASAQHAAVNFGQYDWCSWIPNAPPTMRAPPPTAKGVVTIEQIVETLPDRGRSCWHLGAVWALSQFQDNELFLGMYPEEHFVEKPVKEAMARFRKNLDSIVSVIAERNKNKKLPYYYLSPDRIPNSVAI
# [4] = test system: skin; conditions: topical/therapeutic application; cited from earlier work
smiles,measurement,setting,value
"CCCC(=O)C1c2cccc(O)c2C(=O)c2c(O)cccc21 [Butantrone, 10-Butyryl-Dithranol]",deoxyribose degradation,[1],0.24 ± 0.03 μmol MDA/mmol
same,kDPPH,[2],7.0 ± 0.6 M⁻¹ s⁻¹
same,inhibition at 30 µM,"[3]; PMNL, Table I (Addendum), read-out: 5-LO percent inhibition (value in parentheses)",38%
same,inhibition at 30 µM,"[3]; bovine PMNL, read-out: inhibition at 30 μM",38%
same,"irritation, in words",[4],commonly elicits a widespread and delayed irritation effect
